For series [1], the system named is Plasmodium falciparum. As to the kind of experiment: […] against Plasmodium falciparum strains K39 and V1/S. Type of series: functional.
Series [2] deals with Plasmodium falciparum. Put plainly: In vitro inhibitory concentration against chloroquine-sensitive Plasmodium falciparum K39. It is filed as functional, organism-based.
Series [3] has as its system Plasmodium falciparum. Put plainly: In vitro inhibitory concentration against chloroquine-resistant Plasmodium falciparum V1/S. Type of series: functional, organism-based.
Series [4] can be described thus: In vitro toxicity against B82 fibroblast cells. As to conditions: mouse, read-out: LD50 (the source's name). It is filed as cell-based.
The test system of series [5] is Plasmodium falciparum. As to the kind of experiment: In vitro inhibition against chloroquine-sensitive Plasmodium falciparum K39; Range 0.1-0.4 uM. It is filed as functional, organism-based.
Series [6] relates to Plasmodium falciparum. Put plainly: In vitro inhibition against chloroquine-resistant Plasmodium falciparum V1/S; Range 0.1-0.4 uM. It is filed as functional, organism-based.

Molecules are shown by their SMILES.

Usually IC50 stands for the point on the concentration scale where inhibition reaches its midpoint. Low readings indicate inhibition by little substance, high ones a need for much substance. For the compound `COc1cc2c(ccc3c4cc(OC)c(OC)cc4c[n+](C)c23)cc1O.CS(=O)(=O)[O-]`, the Ratio with Plasmodium falciparum [1] was determined as 0.8. In addition, the IC50 with Plasmodium falciparum [2] was determined as 2.3 µM; in the series with Plasmodium falciparum [3] it was 1.8 µM.

For the compound `CCOc1cc2ccc3c4cc(OC)c(OC)cc4c[n+](C)c3c2cc1OC.CS(=O)(=O)[O-]`, in the series with Plasmodium falciparum [1], the Ratio was 0.9. Further, the IC50 in the series on Plasmodium falciparum [2] turned out to be 0.8 µM; with Plasmodium falciparum [3], 0.74 µM.

Take `COc1cc2c[n+](C)c3c4cc(OC)c(OC)cc4c4occc4c3c2cc1OC.CS(=O)(=O)[O-]`: in the series with Plasmodium falciparum [1], the Ratio was found to be 11.3. The IC50 was found to be 0.009 µM in the series on Plasmodium falciparum [2] and 0.11 µM in the series with Plasmodium falciparum [3].

Regarding `CCOc1cc2c3cc(OC)c(OC)cc3c[n+](C)c2c2cc(OC)c(O)cc12.CS(=O)(=O)[O-]`, in the series with Plasmodium falciparum [1], the Ratio is given as 1. Moreover, the IC50 in the series with Plasmodium falciparum [2] and with Plasmodium falciparum [3] was 0.12 µM each time.

For the compound `CC[n+]1cc2cc(OC)c(OC)cc2c2ccc3cc(OC)c(OC)cc3c21.[I-]`, the Ratio with Plasmodium falciparum [1] is given as 1.3. For the same compound, the IC50 with Plasmodium falciparum [2] was determined as 0.09 µM; in the series on Plasmodium falciparum [3], 0.12 µM.

For the compound `CCOc1cc2c3cc(OC)c(OC)cc3c[n+](CC)c2c2cc(OC)c(OC)cc12.[I-]`, the Ratio in the series on Plasmodium falciparum [1] was 1.4. For the same compound, the IC50 in the series with Plasmodium falciparum [2] was found to be 0.04 µM; in the series on Plasmodium falciparum [3], 0.05 µM. Moreover, the CC50 in series [4] is 3.2 mg/L.

Regarding `COc1cc2c[n+](C)c3c4cc(OC)c(OC)cc4ccc3c2cc1OC.CS(=O)(=O)[O-]`, the Ratio in the series with Plasmodium falciparum [1] turned out to be 4.2. Also, the IC50 with Plasmodium falciparum [2] is 0.07 µM; with Plasmodium falciparum [3], 0.3 µM.

Take `COc1cc2c[n+](C)c3c4cc(OC)c(OC)cc4c(OCC4OCC(Br)([N+](=O)[O-])CO4)cc3c2cc1OC.CS(=O)(=O)[O-]` (stereo not drawn): in the series on Plasmodium falciparum [1], the Ratio is recorded as 1.9. The values for the IC50 in the series on Plasmodium falciparum [2] and with Plasmodium falciparum [3] were 1 µM and 1.84 µM, respectively.

Consider `COc1cc2ccc3c4cc(OC)c(SC)cc4c[n+](C)c3c2cc1OC.CS(=O)(=O)[O-]`, for which the Ratio with Plasmodium falciparum [1] was 4.7. Further, the results for the IC50 in the series with Plasmodium falciparum [2] and in the series on Plasmodium falciparum [3] were 0.19 µM and 0.9 µM, respectively.

With `CCOc1cc2c3cc(OC)c(OC)cc3c[n+](C)c2c2cc(OC)c(OC)cc12.CS(=O)(=O)[O-]`, the Ratio in the series on Plasmodium falciparum [1] is given as 1. Further, the half-inhibitory concentration (IC50) in the series with Plasmodium falciparum [2] and with Plasmodium falciparum [3] was 0.26 µM each time.

`COc1cc2c[n+](C)c3c4cc5c(cc4ccc3c2cc1OC)OCO5` [NITIDINE CHLORIDE]: the IC50 in the series on Plasmodium falciparum [5] and in the series with Plasmodium falciparum [6] was 0.4 µM throughout.

For the origin of these results see ChEMBL document CHEMBL1143522, “Antimalarial benzo[c]phenanthridines” (Bioorg Med Chem Lett, 2005).
